Test results published in US20140249105A1, “NOVEL CERAMIDE ANALOGUES, PROCESSES FOR PREPARING SAME AND USES THEREOF” (Diverchim, priority 2011, published 2014).

Tests used:
B16 melanocytes [1] = experiment: Screening of anti-melanogenesis activity: melanin assay in B16 melanocytes stimulated with NDP-MSH; assay type: cell-based; details: 72 h
Method: This was carried out for compounds in solution in DMSO. The synthesis of melanin was measured in a model of B16 melanocytes stimulated with a stable derivative of α-MSH (natural hormone that stimulates melanogenesis: Melanocyte Stimulating Hormone): NDP-MSH ([Nle^4, DPhe7]-α-MSH).
(§1) Melanocytes were seeded on a 96-well plate and cultured for 24 h (37° C., 5% CO2, DMEM 1 g/L glucose without phenol red supplemented with glucose 3 g/L, L-glutamine 2 mM, penicillin 50 U/mL, streptomycin 50 μg/mL, fetal calf serum (FCS) 10%). […] Each experimental condition was carried out with n=3, apart from the controls carried out with n=6. The cells were then incubated for 72 h. Wells without cells received in parallel the same quantities of medium, supplemented or not with NDP-MSH and with or without the test compounds or the reference in order to quantify the background noise associated with the presence of the compounds.
At the end of 72 hours of incubation, the total melanin (intra- and extracellular) was quantified by measuring the absorbance of each sample at 405 nm (direct reading of the culture plates) against a standard range of melanin (melanin concentrations tested from 0.78 to 100 μg/mL). The background noise, measured in the wells without cells, was subtracted from the values measured so that only the effect connected with the production of melanin is taken into account, without including any interference connected with the presence of the compounds. The results were expressed in percentage of melanin relative to the control as well as in percentage inhibition.

B16 melanocytes [2] = experiment: Viability of the cells, test of reduction of MTT; assay type: cell-based; details: 72 h
Method: as §1
At the end of the treatment, the cells were incubated in the presence of MTT (3-(4,5-dimethylthiazol-2-yl)-2,5-diphenyl tetrazolium bromide), the conversion of which to blue crystals of formazan is proportional to the activity of succinate dehydrogenase (mitochondrial enzyme). After disruption of the cells, the formazan was dissolved in DMSO medium and the optical density (OD), representative of the number of live cells and of their metabolic reactivity, was measured with a microplate reader at 540 nm (VERSAmax, Molecular Devices).

O=C(NC1CCCC1NC(=O)C(F)=CCCCCCOC1CCCCO1)C(F)=CCCCCCOC1CCCCO1 (stereo not drawn) [c107]
Normalized data inhibition (%) (B16 melanocytes [1]; 30 μM): 66% | Normalized data inhibition (%) (B16 melanocytes [1]; 100 μM): 120% | Viability (MTT) % stimulated control (B16 melanocytes [2]; 30 μM): 95 % stimulated control | Viability (MTT) % stimulated control (B16 melanocytes [2]; 100 μM): 26 % stimulated control

O=C(NC1CCCC1NC(=O)C(F)=CCCCCCCCOC1CCCCO1)C(F)=CCCCCCCCOC1CCCCO1 (mixture of isomers) [c66]
Normalized data inhibition (%) (B16 melanocytes [1]; 30 μM): 119% | Normalized data inhibition (%) (B16 melanocytes [1]; 100 μM): 118% | Viability (MTT) % stimulated control (B16 melanocytes [2]; 30 μM): 96 % stimulated control | Viability (MTT) % stimulated control (B16 melanocytes [2]; 100 μM): 93 % stimulated control

O=C(N[C@@H]1CC[C@H](NC(=O)/C(F)=C\CCCCCCCOC2CCCCO2)C1)/C(F)=C\CCCCCCCOC1CCCCO1 (stereo partly drawn) [c70]
Normalized data inhibition (%) (B16 melanocytes [1]; 30 μM): 115% | Normalized data inhibition (%) (B16 melanocytes [1]; 100 μM): 116% | Viability (MTT) % stimulated control (B16 melanocytes [2]; 30 μM): 90 % stimulated control | Viability (MTT) % stimulated control (B16 melanocytes [2]; 100 μM): 86 % stimulated control

O=C(/C=C/CCCCCCCCCCCOC1CCCCO1)N[C@@H]1CC[C@H](NC(=O)/C=C/CCCCCCCCCCCOC2CCCCO2)C1 (stereo partly drawn) [c30]
inhibition at 10 µM (B16 melanocytes [1]; Melanocyte, 10 μM, read-out: Normalized data inhibition (%)): 42% | inhibition at 30 µM (B16 melanocytes [1]; Melanocyte, 30 μM, read-out: Normalized data inhibition (%)): 71% | Viability (MTT) % stimulated control (B16 melanocytes [2]; 10 μM): 77 % stimulated control | Viability (MTT) % stimulated control (B16 melanocytes [2]; 30 μM): 76 % stimulated control

O=C(N[C@@H]1CC[C@H](NC(=O)/C(F)=C\CCCCCOC2CCCCO2)C1)/C(F)=C\CCCCCOC1CCCCO1 (stereo partly drawn) [c106]
Normalized data inhibition (%) (B16 melanocytes [1]; 30 μM): 114% | Normalized data inhibition (%) (B16 melanocytes [1]; 100 μM): 119% | Viability (MTT) % stimulated control (B16 melanocytes [2]; 30 μM): 73 % stimulated control | Viability (MTT) % stimulated control (B16 melanocytes [2]; 100 μM): 36 % stimulated control

CCCCCC=CCC=CCCCCCCCC(=O)NC1CC1NC(=O)CCCCCCCC=CCC=CCCCCC (stereo not drawn) [c122]
Normalized data inhibition (%) (B16 melanocytes [1]; 30 μM): 8% | Normalized data inhibition (%) (B16 melanocytes [1]; 100 μM): 109%

O=C(NC1CCC(NC(=O)C(F)=CCCCCCCCCOC2CCCCO2)C1)C(F)=CCCCCCCCCOC1CCCCO1 (mixture of isomers) [c74]
Normalized data inhibition (%) (B16 melanocytes [1]; 30 μM): 110% | Normalized data inhibition (%) (B16 melanocytes [1]; 100 μM): 111% | Viability (MTT) % stimulated control (B16 melanocytes [2]; 30 μM): 78 % stimulated control | Viability (MTT) % stimulated control (B16 melanocytes [2]; 100 μM): 81 % stimulated control

O=C(NC1CC1NC(=O)C(F)=CCCCCCOC1CCCCO1)C(F)=CCCCCCOC1CCCCO1 (stereo not drawn) [c111]
Normalized data inhibition (%) (B16 melanocytes [1]; 30 μM): 25% | Normalized data inhibition (%) (B16 melanocytes [1]; 100 μM): 108% | Viability (MTT) % stimulated control (B16 melanocytes [2]; 30 μM): 98 % stimulated control | Viability (MTT) % stimulated control (B16 melanocytes [2]; 100 μM): 57 % stimulated control

O=C(N[C@H]1C[C@H]1NC(=O)C(F)=CCCCCCCCCCCCCCCCO)C(F)=CCCCCCCCCCCCCCCCO [c44]
Normalized data inhibition (%) (B16 melanocytes [1]; 1 μM): −11% | Normalized data inhibition (%) (B16 melanocytes [1]; 3 μM): 36% | Normalized data inhibition (%) (B16 melanocytes [1]; 10 μM): 69% | Viability (MTT) % stimulated control (B16 melanocytes [2]; 1 μM): 87 % stimulated control | Viability (MTT) % stimulated control (B16 melanocytes [2]; 3 μM): 88 % stimulated control | Viability (MTT) % stimulated control (B16 melanocytes [2]; 10 μM): 91 % stimulated control

O=C(NC1CC1NC(=O)C(F)=CCCCCCOC1CCCCO1)C(F)=CCCCCCOC1CCCCO1 (racemic) [c110]
Normalized data inhibition (%) (B16 melanocytes [1]; 30 μM): 104% | Normalized data inhibition (%) (B16 melanocytes [1]; 100 μM): 120% | Viability (MTT) % stimulated control (B16 melanocytes [2]; 30 μM): 83 % stimulated control | Viability (MTT) % stimulated control (B16 melanocytes [2]; 100 μM): 0 % stimulated control

O=C(N[C@H]1CCC[C@H]1NC(=O)/C(F)=C\CCCCCCCCOC1CCCCO1)/C(F)=C\CCCCCCCCOC1CCCCO1 (stereo partly drawn) [c72]
Normalized data inhibition (%) (B16 melanocytes [1]; 30 μM): 87% | Normalized data inhibition (%) (B16 melanocytes [1]; 100 μM): 112% | Viability (MTT) % stimulated control (B16 melanocytes [2]; 30 μM): 102 % stimulated control | Viability (MTT) % stimulated control (B16 melanocytes [2]; 100 μM): 86 % stimulated control

O=C(N[C@@H]1CC[C@H](NC(=O)/C(F)=C/CCCCCCCOC2CCCCO2)C1)/C(F)=C/CCCCCCCOC1CCCCO1 (stereo partly drawn) [c68]
Normalized data inhibition (%) (B16 melanocytes [1]; 30 μM): 95% | Normalized data inhibition (%) (B16 melanocytes [1]; 100 μM): 108% | Viability (MTT) % stimulated control (B16 melanocytes [2]; 30 μM): 64 % stimulated control | Viability (MTT) % stimulated control (B16 melanocytes [2]; 100 μM): 50 % stimulated control

O=C(/C=C/CCCCCCCCO)N[C@H]1CCC[C@H]1NC(=O)/C=C/CCCCCCCCO [c15]
Normalized data inhibition (%) (B16 melanocytes [1]; 30 μM): 2% | Normalized data inhibition (%) (B16 melanocytes [1]; 100 μM): 73% | Viability (MTT) % stimulated control (B16 melanocytes [2]; 30 μM): 76 % stimulated control | Viability (MTT) % stimulated control (B16 melanocytes [2]; 100 μM): 74 % stimulated control

O=c1cc(CO)occ1O [Kojic acid, reference compound]
inhibition at 25 µg/mL (B16 melanocytes [1]; Melanocyte, 25 μg/mL, read-out: Normalized data inhibition (%)): 59% | inhibition at 100 µg/mL (B16 melanocytes [1]; Melanocyte, 100 μg/mL, read-out: Normalized data inhibition (%)): 83% | inhibition at 400 µg/mL (B16 melanocytes [1]; Melanocyte, 400 μg/mL, read-out: Normalized data inhibition (%)): 93% | Viability (MTT) % stimulated control (B16 melanocytes [2]; 25 μg/mL): 103 % stimulated control | Viability (MTT) % stimulated control (B16 melanocytes [2]; 100 μg/mL): 99 % stimulated control | Viability (MTT) % stimulated control (B16 melanocytes [2]; 400 μg/mL): 96 % stimulated control

O=C(NC1CCC(NC(=O)C(F)=CCCCCCCCOC2CCCCO2)C1)C(F)=CCCCCCCCOC1CCCCO1 (mixture of isomers) [c69]
Normalized data inhibition (%) (B16 melanocytes [1]; 30 μM): 116% | Normalized data inhibition (%) (B16 melanocytes [1]; 100 μM): 112% | Viability (MTT) % stimulated control (B16 melanocytes [2]; 30 μM): 87 % stimulated control | Viability (MTT) % stimulated control (B16 melanocytes [2]; 100 μM): 78 % stimulated control

O=C(NC1CCC(NC(=O)C(F)=CCCCCCO)C1)C(F)=CCCCCCO (racemic) [c115]
Normalized data inhibition (%) (B16 melanocytes [1]; 30 μM): 0% | Normalized data inhibition (%) (B16 melanocytes [1]; 100 μM): 95% | Viability (MTT) % stimulated control (B16 melanocytes [2]; 30 μM): 94 % stimulated control | Viability (MTT) % stimulated control (B16 melanocytes [2]; 100 μM): 97 % stimulated control

O=C(NC1CCCC1NC(=O)C(F)=CCCCCCCCO)C(F)=CCCCCCCCO (mixture of isomers) [c46]
Normalized data inhibition (%) (B16 melanocytes [1]; 30 μM): 0% | Normalized data inhibition (%) (B16 melanocytes [1]; 100 μM): 75% | Viability (MTT) % stimulated control (B16 melanocytes [2]; 30 μM): 77 % stimulated control | Viability (MTT) % stimulated control (B16 melanocytes [2]; 100 μM): 68 % stimulated control

(E)-14-tetrahydropyranyloxy-tetradec-2-enoic acid [Ref3, reference compound]
Normalized data inhibition (%) (B16 melanocytes [1]; 30 μM): 0% | Normalized data inhibition (%) (B16 melanocytes [1]; 100 μM): 11% | Viability (MTT) % stimulated control (B16 melanocytes [2]; 30 μM): 92 % stimulated control

O=C(NC1CC1NC(=O)C(F)=CCCCCCCCCO)C(F)=CCCCCCCCCO (mixture of isomers) [c37]
Normalized data inhibition (%) (B16 melanocytes [1]; 30 μM): 0% | Normalized data inhibition (%) (B16 melanocytes [1]; 100 μM): 92% | Viability (MTT) % stimulated control (B16 melanocytes [2]; 30 μM): 77 % stimulated control | Viability (MTT) % stimulated control (B16 melanocytes [2]; 100 μM): 83 % stimulated control

O=C(N[C@@H]1CC[C@H](NC(=O)/C(F)=C/CCCCCCCCO)C1)/C(F)=C/CCCCCCCCO [c58]
Normalized data inhibition (%) (B16 melanocytes [1]; 30 μM): 62% | Normalized data inhibition (%) (B16 melanocytes [1]; 100 μM): 83% | Viability (MTT) % stimulated control (B16 melanocytes [2]; 30 μM): 101 % stimulated control | Viability (MTT) % stimulated control (B16 melanocytes [2]; 100 μM): 98 % stimulated control

O=C(NC1CCC(NC(=O)C(F)=CCCCCCOC2CCCCO2)C1)C(F)=CCCCCCOC1CCCCO1 (stereo not drawn) [c149]
Normalized data inhibition (%) (B16 melanocytes [1]; 30 μM): 108% | Normalized data inhibition (%) (B16 melanocytes [1]; 100 μM): 120% | Viability (MTT) % stimulated control (B16 melanocytes [2]; 30 μM): 87 % stimulated control | Viability (MTT) % stimulated control (B16 melanocytes [2]; 100 μM): 28 % stimulated control

O=C(N[C@H]1CCC[C@H]1NC(=O)/C(F)=C\CCCCCCCOC1CCCCO1)/C(F)=C\CCCCCCCOC1CCCCO1 (stereo partly drawn) [c67]
Normalized data inhibition (%) (B16 melanocytes [1]; 30 μM): 119% | Normalized data inhibition (%) (B16 melanocytes [1]; 100 μM): 116% | Viability (MTT) % stimulated control (B16 melanocytes [2]; 30 μM): 71 % stimulated control | Viability (MTT) % stimulated control (B16 melanocytes [2]; 100 μM): 81 % stimulated control

O=C(NC1CCC(NC(=O)C(F)=CCCCCCOC2CCCCO2)C1)C(F)=CCCCCCOC1CCCCO1 (stereo not drawn) [c8]
Normalized data inhibition (%) (B16 melanocytes [1]; 30 μM): 86% | Normalized data inhibition (%) (B16 melanocytes [1]; 100 μM): 115% | Viability (MTT) % stimulated control (B16 melanocytes [2]; 30 μM): 86 % stimulated control | Viability (MTT) % stimulated control (B16 melanocytes [2]; 100 μM): 77 % stimulated control

CCCCCC=CCC=CCCCCCCCC(=O)NC1CCC(NC(=O)CCCCCCCC=CCC=CCCCCC)C1 (stereo not drawn) [c135]
Normalized data inhibition (%) (B16 melanocytes [1]; 30 μM): 0% | Normalized data inhibition (%) (B16 melanocytes [1]; 100 μM): 90%

O=C(NC1CCC(NC(=O)C(F)=CCCCCCCCCCCCO)C1)C(F)=CCCCCCCCCCCCO (stereo not drawn) [c60]
Normalized data inhibition (%) (B16 melanocytes [1]; 30 μM): 83% | Normalized data inhibition (%) (B16 melanocytes [1]; 100 μM): 97% | Viability (MTT) % stimulated control (B16 melanocytes [2]; 30 μM): 105 % stimulated control | Viability (MTT) % stimulated control (B16 melanocytes [2]; 100 μM): 101 % stimulated control
